{"source": "ChEMBL document CHEMBL5252650", "about": "“An ATG4B inhibitor blocks autophagy and sensitizes Sorafenib inhibition activities in HCC tumor cells” (Bioorg Med Chem, 2023)", "key": {"Huh-7 [1]": {"test_system": "Huh-7", "experiment": "Inhibition of autophagy in human Huh-7 cells assessed as fold increase in LC3B-II protein expression at 20 uM incubated for 24 hrs by immunoblot analysis relative to control", "type": "functional"}, "[2]": {"experiment": "Inhibition of sorafenib-induced autophagic flux in human SK-HEP1 cells assessed as fold increase in p62 protein expression at 20 uM incubated for 24 hrs in presence of 5 uM sorafenib by immunoblot analysis relative to control", "type": "functional"}, "Huh-7 [3]": {"test_system": "Huh-7", "experiment": "Inhibition of colony formation in human Huh-7 cells at 10 uM incubated for 14 days in presence of sorafenib by crystal violet staining based analysis", "type": "functional, cell-based", "conditions": "time 14.0 day"}, "Huh-7 [4]": {"test_system": "Huh-7", "experiment": "Cytotoxicity against human Huh-7 cells assessed as reduction in cell viability incubated for 72 hrs by CellTiter-Glo luminescent assay", "type": "functional, cell-based", "conditions": "Huh-7, 72 h"}, "SK-HEP1 [5]": {"test_system": "SK-HEP1", "experiment": "Inhibition of autophagy in human SK-HEP1 cells assessed as fold increase in p62 protein expression at 20 uM incubated for 24 hrs by immunoblot analysis relative to control", "type": "functional"}, "MRC5": {"test_system": "MRC5", "experiment": "Cytotoxicity against human MRC5 cells", "type": "toxicity, cell-based"}, "[6]": {"experiment": "Inhibition of sorafenib-induced autophagic flux in human Huh-7 cells assessed as fold increase in p62 protein expression at 20 uM incubated for 24 hrs in presence of 5 uM sorafenib by immunoblot analysis relative to control", "type": "functional"}, "Huh-7 [7]": {"test_system": "Huh-7", "experiment": "Inhibition of autophagy in human Huh-7 cells assessed as fold increase in p62 protein expression at 20 uM incubated for 24 hrs by immunoblot analysis relative to control", "type": "functional"}, "SK-HEP1 [8]": {"test_system": "SK-HEP1", "experiment": "Inhibition of autophagy in human SK-HEP1 cells assessed as fold increase in LC3B-II protein expression at 10 uM incubated for 24 hrs by immunoblot analysis relative to control", "type": "functional"}, "[9]": {"biological_target": "T1, Cysteine protease ATG4B (Homo sapiens) (UniProt Q9Y4P1)", "T1 sequence (whole entry)": "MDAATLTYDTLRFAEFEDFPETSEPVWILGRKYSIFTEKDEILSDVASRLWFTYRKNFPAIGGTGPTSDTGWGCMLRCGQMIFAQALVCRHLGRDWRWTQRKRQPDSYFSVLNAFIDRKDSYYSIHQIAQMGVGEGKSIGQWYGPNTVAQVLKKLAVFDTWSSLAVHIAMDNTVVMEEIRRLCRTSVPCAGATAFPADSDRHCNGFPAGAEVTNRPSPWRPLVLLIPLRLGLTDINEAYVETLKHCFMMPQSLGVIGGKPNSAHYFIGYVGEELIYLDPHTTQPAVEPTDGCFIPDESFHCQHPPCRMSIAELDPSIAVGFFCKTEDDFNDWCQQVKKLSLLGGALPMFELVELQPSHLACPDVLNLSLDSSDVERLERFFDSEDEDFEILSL", "experiment": "Binding affinity to N-terminal His6/SUMO-tagged full length human ATG4B expressed in Escherichia coli BL21 (DE3) cells at 100 uM by CPMG spectroscopy"}, "[10]": {"biological_target": "T1, Cysteine protease ATG4B (Homo sapiens)", "experiment": "(§1) Inhibition of N-terminal His6/SUMO-tagged full length human ATG4B expressed in Escherichia coli BL21 (DE3) cells using His-LC3B-GST as substrate preincubated with enzyme for 1 hr followed by substrate addition for 1 hr by HTRF assay", "conditions": "time 2.0 hrs"}, "Cysteine protease ATG4B [11]": {"biological_target": "T2, Cysteine protease ATG4B (Homo sapiens, UniProt Q9Y4P1)", "T2 sequence (Q9Y4P1 whole entry)": "T1 sequence (whole entry)", "experiment": "as §1"}, "[12]": {"experiment": "Inhibition of sorafenib-induced autophagic flux in human SK-HEP1 cells assessed as fold increase in LC3B-II protein expression at 20 uM incubated for 24 hrs in presence of 5 uM sorafenib by immunoblot analysis relative to control", "type": "functional"}, "Huh-7 [13]": {"test_system": "Huh-7", "experiment": "Inhibition of autophagy in human Huh-7 cells assessed as reduction in LC3B-I protein expression at 10 to 20 uM incubated for 24 hrs by immunoblot analysis", "type": "functional, cell-based", "conditions": "dose 10-20 µM"}, "[14]": {"experiment": "Inhibition of sorafenib-induced autophagic flux in human SK-HEP1 cells assessed as fold increase in LC3B-II protein expression at 20 uM incubated for 24 hrs in presence of 10 uM sorafenib by immunoblot analysis relative to control", "type": "functional"}, "Huh-7 [15]": {"test_system": "Huh-7", "experiment": "Inhibition of autophagy in human Huh-7 cells assessed as fold increase in LC3B-II protein expression at 10 uM incubated for 24 hrs by immunoblot analysis relative to control", "type": "functional"}, "SK-HEP1 [16]": {"test_system": "SK-HEP1", "experiment": "Inhibition of colony formation in human SK-HEP1 cells at 10 uM incubated for 14 days in presence of sorafenib by crystal violet staining based analysis", "type": "functional, cell-based", "conditions": "time 14.0 day"}, "[17]": {"experiment": "Inhibition of sorafenib-induced autophagic flux in human Huh-7 cells assessed as fold increase in p62 protein expression at 20 uM incubated for 24 hrs in presence of 10 uM sorafenib by immunoblot analysis relative to control", "type": "functional"}, "Cysteine protease ATG4B [18]": {"biological_target": "T2, Cysteine protease ATG4B", "experiment": "Binding affinity to N-terminal His6/SUMO-tagged full length human ATG4B expressed in Escherichia coli BL21 (DE3) cells by SPR assay"}, "Huh-7 [19]": {"test_system": "Huh-7", "experiment": "Inhibition of autophagy in human Huh-7 cells assessed as fold increase in p62 protein expression at 10 uM incubated for 24 hrs by immunoblot analysis relative to control", "type": "functional"}, "Huh-7 [20]": {"test_system": "Huh-7", "experiment": "Inhibition of sorafenib-induced autophagic flux in human Huh-7 cells overexpressing TurboRFP-EGFP-LC3B assessed as increase in yellow dot puncta formation at 10 uM incubated for 24 hrs in presence of 5 uM sorafenib by immunofluorescence assay", "type": "functional, cell-based"}, "IMR-90": {"test_system": "IMR-90", "experiment": "Cytotoxicity against human IMR-90 cells", "type": "toxicity, cell-based"}, "[21]": {"experiment": "Inhibition of sorafenib-induced autophagic flux in human Huh-7 cells assessed as fold increase in LC3B-II protein expression at 20 uM incubated for 24 hrs in presence of 5 uM sorafenib by immunoblot analysis relative to control", "type": "functional"}, "SK-HEP1 [22]": {"test_system": "SK-HEP1", "experiment": "Inhibition of autophagy in human SK-HEP1 cells assessed as fold increase in LC3B-II protein expression at 20 uM incubated for 24 hrs by immunoblot analysis relative to control", "type": "functional"}, "[23]": {"experiment": "Inhibition of sorafenib-induced autophagic flux in human Huh-7 cells assessed as fold increase in LC3B-II protein expression at 20 uM incubated for 24 hrs in presence of 10 uM sorafenib by immunoblot analysis relative to control", "type": "functional"}, "[24]": {"biological_target": "T1, Cysteine protease ATG4B (Homo sapiens)", "experiment": "Inhibition of N-terminal His6/SUMO-tagged full length human ATG4B expressed in Escherichia coli BL21 (DE3) cells assessed as reduction in substrate cleavage using His-LC3B-GST as substrate preincubated with enzyme for 1 hr followed by substrate addition for 30 mins by gel electrophoresis analysis", "conditions": "dose 3.125-50 µM, time 1.5 hrs"}, "Huh-7 [25]": {"test_system": "Huh-7", "experiment": "Inhibition of autophagy in human Huh-7 cells overexpressing TurboRFP-EGFP-LC3B assessed as increase in yellow dot puncta formation at 10 uM incubated for 24 hrs by immunofluorescence assay", "type": "functional, cell-based"}, "Huh-7 [26]": {"test_system": "Huh-7", "experiment": "Potentiation of sorafenib-induced antiproliferative activity against human Huh-7 cells assessed as inhibition of cell proliferation at 20 uM incubated for 5 days in presence of sorafenib by CTG assay", "type": "functional, cell-based", "conditions": "time 5.0 day"}, "SK-HEP1 [27]": {"test_system": "SK-HEP1", "experiment": "Inhibition of autophagy in human SK-HEP1 cells assessed as fold increase in p62 protein expression at 10 uM incubated for 24 hrs by immunoblot analysis relative to control", "type": "functional"}, "SK-HEP1 [28]": {"test_system": "SK-HEP1", "experiment": "Inhibition of autophagy in human SK-HEP1 cells assessed as reduction in LC3B-I protein expression at 10 to 20 uM incubated for 24 hrs by immunoblot analysis", "type": "functional, cell-based", "conditions": "dose 10-20 µM"}, "SK-HEP1 [29]": {"test_system": "SK-HEP1", "experiment": "Cytotoxicity against human SK-HEP1 cells assessed as reduction in cell viability incubated for 72 hrs by CellTiter-Glo luminescent assay", "type": "functional, cell-based", "conditions": "SK-HEP1, 72 h"}, "[30]": {"experiment": "Inhibition of sorafenib-induced autophagic flux in human SK-HEP1 cells assessed as fold increase in p62 protein expression at 20 uM incubated for 24 hrs in presence of 10 uM sorafenib by immunoblot analysis relative to control", "type": "functional"}, "Huh-7 [31]": {"test_system": "Huh-7", "experiment": "Inhibition of autophagy in human Huh-7 cells overexpressing TurboRFP-EGFP-LC3B assessed as increase in number of red dots at 10 uM incubated for 24 hrs by immunofluorescence assay", "type": "functional, cell-based"}, "SK-HEP1 [32]": {"test_system": "SK-HEP1", "experiment": "Potentiation of sorafenib-induced antiproliferative activity against human SK-HEP1 cells assessed as inhibition of cell proliferation at 20 uM incubated for 5 days in presence of sorafenib by CTG assay", "type": "functional, cell-based", "conditions": "time 5.0 day"}}, "note": "The source made the active and inactive calls. The rule behind the calls is not given here.", "data": [{"smiles": "S=C(Nc1ccc2nc(-c3ccco3)c(-c3ccco3)nc2c1)N1CCCCCC1", "values": [{"measurement": "fold change (FC)", "setting": "Huh-7 [1]", "value": 1.6}, {"measurement": "fold change (FC)", "setting": "[2]", "value": 0.85}, {"measurement": "inhibition", "setting": "Huh-7 [3]", "value": "Active"}, {"measurement": "IC50", "setting": "Huh-7 [4]", "value": 25.3, "unit": "µM"}, {"measurement": "fold change (FC)", "setting": "SK-HEP1 [5]", "value": 2.4}, {"measurement": "Activity", "setting": "MRC5", "value": "Non-Toxic"}, {"measurement": "fold change (FC)", "setting": "[6]", "value": 1.1}, {"measurement": "fold change (FC)", "setting": "Huh-7 [7]", "value": 2.8}, {"measurement": "fold change (FC)", "setting": "SK-HEP1 [8]", "value": 1.46}, {"measurement": "Activity", "setting": "[9]", "value": "Active"}, {"measurement": "inhibition", "setting": "[10]", "value": "Dose-Dependent Effect"}, {"measurement": "IC50", "setting": "Cysteine protease ATG4B [11]", "value": 3.08, "unit": "µM"}, {"measurement": "fold change (FC)", "setting": "[12]", "value": 0.82}, {"measurement": "inhibition", "setting": "Huh-7 [13]", "value": "Active"}, {"measurement": "fold change (FC)", "setting": "[14]", "value": 0.66}, {"measurement": "fold change (FC)", "setting": "Huh-7 [15]", "value": 1.5}, {"measurement": "inhibition", "setting": "SK-HEP1 [16]", "value": "Active"}, {"measurement": "fold change (FC)", "setting": "[17]", "value": 0.84}, {"measurement": "Kd", "setting": "Cysteine protease ATG4B [18]", "value": 14.3, "unit": "µM"}, {"measurement": "fold change (FC)", "setting": "Huh-7 [19]", "value": 2.3}, {"measurement": "inhibition", "setting": "Huh-7 [20]", "value": "Active"}, {"measurement": "Activity", "setting": "IMR-90", "value": "Non-Toxic"}, {"measurement": "fold change (FC)", "setting": "[21]", "value": 0.76}, {"measurement": "fold change (FC)", "setting": "SK-HEP1 [22]", "value": 1.6}, {"measurement": "fold change (FC)", "setting": "[23]", "value": 0.64}, {"measurement": "inhibition", "setting": "[24]", "value": "Dose-Dependent Effect"}, {"measurement": "inhibition", "setting": "Huh-7 [25]", "value": "Active"}, {"measurement": "Activity", "setting": "Huh-7 [26]", "value": "Active"}, {"measurement": "fold change (FC)", "setting": "SK-HEP1 [27]", "value": 2.1}, {"measurement": "inhibition", "setting": "SK-HEP1 [28]", "value": "Active"}, {"measurement": "IC50", "setting": "SK-HEP1 [29]", "value": 23.6, "unit": "µM"}, {"measurement": "fold change (FC)", "setting": "[30]", "value": 0.82}, {"measurement": "inhibition", "setting": "Huh-7 [31]", "value": "Active"}, {"measurement": "Activity", "setting": "SK-HEP1 [32]", "value": "Active"}]}]}
